Data on 1 molecule can be found in patent US9029355B2, “Solid ganaxolone compositions and methods for the making and use thereof” (Marinus Pharmaceuticals, priority 2005, dated 2015).

Where only a bound is given, the exact number is not on record here.

The series in a line: Solubility of ganaxolone using water soluble beta cyclodextrins. The series is classed as physicochemical. Particulars: water soluble beta cyclodextrins (beta-sulfobutyl-cyclodextrin, 2-hydroxypropylbetacyclodextrin). The source says: Ganaxolone formulations suitable for intramuscular, subcutaneous, or intravenous injection may comprise physiologically acceptable sterile aqueous or non-aqueous solutions, dispersions, suspensions or emulsions, and sterile powders for reconstitution into sterile injectable solutions or dispersions. Examples of suitable aqueous and non-aqueous carriers, diluents, solvents, or vehicles including water, ethanol, polyols (propylene glycol, polyethylene-glycol, glycerol, cremophor and the like), suitable mixtures thereof, vegetable oils (such as olive oil) and injectable organic esters such as ethyl oleate. Additionally, Ganaxolone can be dissolved at concentrations of >1 mg/ml using water soluble beta cyclodextrins (e.g. beta-sulfobutyl-cyclodextrin and 2-hydroxypropylbetacyclodextrin. Proper fluidity can be maintained, for example, by the use of a coating such as lecithin, by the maintenance of the required particle size in the case of dispersions, and by the use of surfactants. Ganaxolone formulations suitable for subcutaneous injection may also contain additives such as preserving, wetting, emulsifying, and dispensing agents. Prevention of the growth of microorganisms can be ensured by various antibacterial and antifungal agents, such as parabens, benzoic acid, benzyl alcohol, chlorobutanol, phenol, sorbic acid, and the like. […]

`CC(=O)[C@H]1CC[C@H]2[C@@H]3CC[C@H]4C[C@](C)(O)CC[C@]4(C)[C@H]3CC[C@]12C` [Ganaxolone, 3α-hydroxy-3β-methyl-5α-pregnan-20-one] yielded a concentration dissolved above 1000 µg/mL.
